Test results taken from the NIST ThermoML archive (doi:10.1021/je025657+).
Values joined by “and” are separate entries in the source; they are usually repeats but may differ in a detail not shown here. Equal values may be shown once. ± gives the expanded uncertainty stated by the source.

Conditions: for vapor or sublimation pressure: Closed cell (Static) method

COC(F)(F)F [trifluoromethoxymethane]
Gas, Burnett expansion method
Conditions | mass density [kg/m3]
320 K, 421.5 kPa | 17.3 ± 0.11
320 K, 570.4 kPa | 24.28 ± 0.11
320 K, 604.9 kPa | 25.98 ± 0.11
320 K, 802.9 kPa | 36.45 ± 0.11
320 K, 847.1 kPa | 38.98 ± 0.11
330 K, 137.5 kPa | 5.133 ± 0.1
330 K, 188.9 kPa | 7.099 ± 0.1
330 K, 203.7 kPa | 7.696 ± 0.1
330 K, 280.6 kPa | 10.75 ± 0.11
330 K, 300.2 kPa | 11.55 ± 0.11
330 K, 410.7 kPa | 16.13 ± 0.11
330 K, 437.5 kPa | 17.29 ± 0.11
330 K, 594.3 kPa | 24.27 ± 0.11
330 K, 630.6 kPa | 25.96 ± 0.11
330 K, 841.9 kPa | 36.48 ± 0.11
330 K, 889 kPa | 38.98 ± 0.11
340 K, 141.7 kPa | 5.126 ± 0.1
340 K, 195.8 kPa | 7.136 ± 0.1
340 K, 210.4 kPa | 7.694 ± 0.1
340 K, 310.5 kPa | 11.54 ± 0.1
340 K, 425.6 kPa | 16.13 ± 0.11
340 K, 453.5 kPa | 17.28 ± 0.11
340 K, 655.6 kPa | 25.94 ± 0.11
340 K, 879.5 kPa | 36.45 ± 0.11
340 K, 929.4 kPa | 38.95 ± 0.11
340 K, 1216.9 kPa | 54.78 ± 0.11
340 K, 1278.5 kPa | 58.56 ± 0.11
340 K, 1605.8 kPa | 82.06 ± 0.12
350 K, 146.2 kPa | 5.127 ± 0.1
350 K, 202.9 kPa | 7.174 ± 0.1
350 K, 217 kPa | 7.688 ± 0.1
350 K, 299.5 kPa | 10.74 ± 0.1
350 K, 320.6 kPa | 11.53 ± 0.1
350 K, 469.2 kPa | 17.27 ± 0.11
350 K, 640.8 kPa | 24.25 ± 0.11
350 K, 680.3 kPa | 25.92 ± 0.11
350 K, 969 kPa | 38.92 ± 0.11
350 K, 1277.1 kPa | 54.75 ± 0.11
350 K, 1343.5 kPa | 58.5 ± 0.11
350 K, 1709.6 kPa | 82.31 ± 0.12
350 K, 1782.8 kPa | 87.93 ± 0.12

Conditions | mass density [kg/m3]
320 K, 449.1 kPa, Gas | 18.62 ± 0.31
320 K, 634.7 kPa, Gas | 27.54 ± 0.34
320 K, 968.5 kPa, Gas | 46.37 ± 0.41
320 K, 1046.3 kPa, Liquid | 1013.52 ± 0.36
320 K, 1081.4 kPa, Liquid | 1013.85 ± 0.36
320 K, 1117.7 kPa, Liquid | 1014.21 ± 0.37
320 K, 1512.4 kPa, Liquid | 1017.85 ± 0.38
320 K, 1515.2 kPa, Liquid | 1018.55 ± 0.38
320 K, 2029.1 kPa, Liquid | 1023.1 ± 0.4
320 K, 2036.4 kPa, Liquid | 1022.49 ± 0.39
320 K, 2520.5 kPa, Liquid | 1026.61 ± 0.41
320 K, 2529.1 kPa, Liquid | 1027.35 ± 0.41
320 K, 3012.2 kPa, Liquid | 1031.29 ± 0.43
320 K, 3050.4 kPa, Liquid | 1030.92 ± 0.42
320 K, 3512.7 kPa, Liquid | 1035.21 ± 0.44
320 K, 3595.2 kPa, Liquid | 1035.17 ± 0.44
320 K, 4030.7 kPa, Liquid | 1039.11 ± 0.46
320 K, 4131.4 kPa, Liquid | 1039.19 ± 0.46
320 K, 4518.5 kPa, Liquid | 1042.67 ± 0.47
320 K, 4616.1 kPa, Liquid | 1042.69 ± 0.47
320 K, 5039.6 kPa, Liquid | 1046.35 ± 0.49
320 K, 5136.9 kPa, Liquid | 1046.33 ± 0.49
320 K, 5518 kPa, Liquid | 1049.62 ± 0.51
320 K, 5652.1 kPa, Liquid | 1049.82 ± 0.51
320 K, 6055.9 kPa, Liquid | 1053.18 ± 0.53
320 K, 6201.4 kPa, Liquid | 1053.41 ± 0.54
320 K, 6522.4 kPa, Liquid | 1056.19 ± 0.55
320 K, 6721.8 kPa, Liquid | 1056.72 ± 0.56
320 K, 6877.8 kPa, Liquid | 1058.42 ± 0.57
320 K, 7175.8 kPa, Liquid | 1059.52 ± 0.58
330 K, 72.1 kPa, Gas | 2.7 ± 0.26
330 K, 106.1 kPa, Gas | 3.97 ± 0.26
330 K, 155.7 kPa, Gas | 5.88 ± 0.27
330 K, 227.6 kPa, Gas | 8.7 ± 0.28
330 K, 330.5 kPa, Gas | 12.87 ± 0.29
330 K, 475.1 kPa, Gas | 19.02 ± 0.31
330 K, 674.2 kPa, Gas | 28.13 ± 0.34
330 K, 936.5 kPa, Gas | 41.69 ± 0.39
330 K, 1364.9 kPa, Liquid | 972.53 ± 0.39
330 K, 1414.6 kPa, Liquid | 973.15 ± 0.39
330 K, 1458.1 kPa, Liquid | 973.66 ± 0.39
330 K, 2087 kPa, Liquid | 981.1 ± 0.38
330 K, 2555.2 kPa, Liquid | 986.24 ± 0.36
330 K, 3114.9 kPa, Liquid | 992.08 ± 0.35
330 K, 3553.8 kPa, Liquid | 996.38 ± 0.34
330 K, 4105.6 kPa, Liquid | 1001.58 ± 0.34
330 K, 4643.4 kPa, Liquid | 1006.39 ± 0.35
330 K, 5117 kPa, Liquid | 1010.47 ± 0.36
330 K, 5639.1 kPa, Liquid | 1014.76 ± 0.38
330 K, 6168.6 kPa, Liquid | 1018.96 ± 0.4
330 K, 6739.6 kPa, Liquid | 1023.31 ± 0.42
330 K, 7155.4 kPa, Liquid | 1026.38 ± 0.43
340 K, 1691.6 kPa, Liquid | 925.88 ± 0.52
340 K, 1704.5 kPa, Liquid | 926.14 ± 0.52
340 K, 1776.3 kPa, Liquid | 927.36 ± 0.52
340 K, 2059.3 kPa, Liquid | 932.03 ± 0.51
340 K, 2582.2 kPa, Liquid | 940.1 ± 0.5
340 K, 3081.7 kPa, Liquid | 947.17 ± 0.48
340 K, 3596.1 kPa, Liquid | 953.91 ± 0.47
340 K, 4130.8 kPa, Liquid | 960.48 ± 0.45
340 K, 4614 kPa, Liquid | 966.04 ± 0.43
340 K, 5146.7 kPa, Liquid | 971.84 ± 0.42
340 K, 5642.7 kPa, Liquid | 976.95 ± 0.4
340 K, 6163.1 kPa, Liquid | 982.05 ± 0.39
340 K, 6711.6 kPa, Liquid | 987.19 ± 0.37
340 K, 7112.6 kPa, Liquid | 990.78 ± 0.36
350 K, 2091.1 kPa, Liquid | 872.23 ± 0.73
350 K, 2104.3 kPa, Liquid | 872.59 ± 0.73

Liquid
Conditions | mass density | vapor or sublimation pressure
320 K | 1013.47 ± 1.2 kg/m3 and 1014.09 ± 1.2 kg/m3 | 1038.1 ± 1.7 kPa and 1038.5 ± 1.7 kPa and 1038.4 ± 1.7 kPa
325 K | – | 1175.7 ± 1.9 kPa
330 K | 972.09 ± 1.4 kg/m3 and 973.36 ± 1.3 kg/m3 and 973.37 ± 1.3 kg/m3 | 1325.7 ± 2.1 kPa and 1325.6 ± 2.1 kPa
335 K | – | 1489.7 ± 2.3 kPa
340 K | 925.57 ± 1.9 kg/m3 | 1668.8 ± 2.6 kPa and 1668.5 ± 2.6 kPa and 1670.2 ± 2.6 kPa
345 K | – | 1863.6 ± 2.9 kPa
